# Measured values from PMC4303209, “A novel phosphatidylinositol 3-kinase (PI3K) inhibitor directs a potent FOXO-dependent, p53-independent cell cycle arrest phenotype characterized by the differential induction of a subset of FOXO-regulated genes” (Breast Cancer Research : BCR, 2014).
# Test system: MCF-7 breast cancer cells
# Assay: Microarray gene expression analysis (Agilent whole human genome 4 x 44K; compound vs DMSO, LIMMA log2 fold change)
# Type: cell-based
# [1] = MCF-7, 100nM, six hours, 1.5-fold expression change threshold
compound,measurement,setting,value
Oc1cccc(-c2nc(N3CCOCC3)c3oc4ncccc4c3n2)c1 [PI-103],ESCO1 log2FC,"Gene 114799, cell cycle genes",0.45
same,UHRF2 log2FC,"Gene 115426, cell cycle genes",0.51
same,KLHDC3 log2FC,"Gene 116138, cell cycle genes",0.0341
same,CNTROB log2FC,"Gene 116840, cell cycle genes",0.23
same,NEDD1 log2FC,"Gene 121441, cell cycle genes",0.35
same,HEXIM2 log2FC,"Gene 124790, cell cycle genes",0.87
same,ARL8A log2FC,"Gene 127829, cell cycle genes",0.56
same,UHMK1 log2FC,"Gene 127933, cell cycle genes",-0.17
same,IQGAP3 log2FC,"Gene 128239, cell cycle genes",0.35
same,NUP35 log2FC,"Gene 129401, cell cycle genes",-0.36
same,MITD1 log2FC,"Gene 129531, cell cycle genes",0.71
same,NUDT16 log2FC,"Gene 131870, cell cycle genes",-0.23
same,ZFP42 log2FC,"Gene 132625, cell cycle genes",-0.0323
same,JMY log2FC,"Gene 133746, cell cycle genes",1.01
same,HUS1B log2FC,"Gene 135458, cell cycle genes",-0.84
same,NEK7 log2FC,"Gene 140609, cell cycle genes",0.11
same,CTCFL log2FC,"Gene 140690, cell cycle genes",-0.0211
same,PSMA8 log2FC,"Gene 143471, cell cycle genes",0.0738
same,SESN3 log2FC,"Gene 143686, cell cycle genes",0.12
same,PIWIL4 log2FC,"Gene 143689, cell cycle genes",0.27
same,E2F7 log2FC,"Gene 144455, cell cycle genes",-0.38
same,RAD9B log2FC,"Gene 144715, cell cycle genes",-0.00292
same,KCTD11 log2FC,"Gene 147040, cell cycle genes",0.28
same,PYHIN1 log2FC,"Gene 149628, cell cycle genes",-0.0139
same,PPP1R1C log2FC,"Gene 151242, cell cycle genes",0.09
same,SGOL2 log2FC,"Gene 151246, cell cycle genes",0.87
same,SGOL1 log2FC,"Gene 151648, cell cycle genes",0.42
same,ROPN1B log2FC,"Gene 152015, cell cycle genes",0.0015
same,DAB2IP log2FC,"Gene 153090, cell cycle genes",0.03
same,CDCA2 log2FC,"Gene 157313, cell cycle genes",0.46
same,ESCO2 log2FC,"Gene 157570, cell cycle genes",0.48
same,SASS6 log2FC,"Gene 163786, cell cycle genes",0.49
same,WBP2NL log2FC,"Gene 164684, cell cycle genes",-0.0843
same,THAP5 log2FC,"Gene 168451, cell cycle genes",0.10
same,FLCN log2FC,"Gene 201163, cell cycle genes",0.78
same,STRA13 log2FC,"Gene 201254, cell cycle genes",-0.39
same,TUBB log2FC,"Gene 203068, cell cycle genes",-0.55
same,REEP3 log2FC,"Gene 221035, cell cycle genes",-0.29
same,C6orf89 log2FC,"Gene 221477, cell cycle genes",-0.38
same,SPDYA log2FC,"Gene 245711, cell cycle genes",-0.01
same,CDC26 log2FC,"Gene 246184, cell cycle genes",-0.67
same,ASPM log2FC,"Gene 259266, cell cycle genes",1.14
same,SLC39A5 log2FC,"Gene 283375, cell cycle genes",0.05
same,GAS2L3 log2FC,"Gene 283431, cell cycle genes",0.53
same,NSMCE2 log2FC,"Gene 286053, cell cycle genes",0.84
same,LIN9 log2FC,"Gene 286826, cell cycle genes",1.23
same,TMPRSS11A log2FC,"Gene 339967, cell cycle genes",0.0013
same,NUP43 log2FC,"Gene 348995, cell cycle genes",0.24
same,APITD1 log2FC,"Gene 378708, cell cycle genes",0.07
same,SETD8 log2FC,"Gene 387893, cell cycle genes",-0.04
same,PIM3 log2FC,"Gene 415116, cell cycle genes",0.64
same,PIWIL3 log2FC,"Gene 440822, cell cycle genes",-0.09
same,"expression of FOXO-dependent apoptosis genes including TNFSF10, BCL211 and FASLG (array)",MCF-7,did not significantly change
same,number of differentially expressed genes,[1],"more than 2,000"
same,number of induced (upregulated) genes,[1],"1,293"
same,number of repressed (downregulated) genes,[1],886
same,"CCND1, SPRY2 and MMP9 expression (array)","MCF-7, FOXO target genes",significantly downregulated
same,"expression of CCNG2, KLHL24, DDIT3, CITED2 and RICTOR (array)","MCF-7, FOXO target genes",significantly upregulated
same,MAD1L1 log2FC,cell cycle genes,-0.14
same,ACSL5 log2FC,"gene ACSL5 (51703), apoptosis genes",0.058
same,log2FC,"gene ACTR1A (Gene 10121), cell cycle genes",-0.13
same,ADAMTS20 log2FC,"gene ADAMTS20 (80070), apoptosis genes",-0.005
same,ADIPOQ log2FC,"gene ADIPOQ (9370), apoptosis genes",-0.040
same,ADRA1A log2FC,"gene ADRA1A (148), apoptosis genes",0.010
same,AGTR2 log2FC,"gene AGTR2 (186), apoptosis genes",0.044
same,log2FC AKAP8,"gene AKAP8 (Gene 10270), cell cycle genes",-0.20
same,ALB log2FC,"gene ALB (213), apoptosis genes",-0.044
same,ALOX12 log2FC,"gene ALOX12 (239), apoptosis genes",-0.144
same,ALX3 log2FC,"gene ALX3 (257), apoptosis genes",0.013
same,ALX4 log2FC,"gene ALX4 (60529), apoptosis genes",-0.036
same,log2FC,"gene ANAPC13 (Gene 25847), cell cycle genes",-0.30
same,ANKRD13C log2FC,"gene ANKRD13C (81573), apoptosis genes",-0.007
same,APBB1 log2FC,"gene APBB1 (322), apoptosis genes",0.356
same,APOH log2FC,"gene APOH (350), apoptosis genes",0.052
same,AQP1 log2FC,"gene AQP1 (358), apoptosis genes",-0.011
same,ARHGAP10 log2FC,"gene ARHGAP10 (79658), apoptosis genes",-0.061
same,ARHGEF6 log2FC,"gene ARHGEF6 (9459), apoptosis genes",-0.152
same,ARHGEF16 log2FC,"gene ARHGEF16 (27237), apoptosis genes",0.275
same,ARHGEF18 log2FC,"gene ARHGEF18 (23370), apoptosis genes",-0.106
same,ATOH1 log2FC,"gene ATOH1 (474), apoptosis genes",-0.042
same,ATPIF1 log2FC,"gene ATPIF1 (93974), apoptosis genes",0.131
same,log2FC,"gene ATR (Gene 545), cell cycle genes",0.11
same,log2FC,"gene BAD (Gene 572), cell cycle genes",0.53
same,BCL2L10 log2FC,"gene BCL2L10 (10017), apoptosis genes",-0.066
same,BDKRB2 log2FC,"gene BDKRB2 (624), apoptosis genes",-0.025
same,BIRC2 log2FC,"gene BIRC2 (329), apoptosis genes",-0.339
same,BIRC8 log2FC,"gene BIRC8 (112401), apoptosis genes",-0.038
same,BMP2 log2FC,"gene BMP2 (650), apoptosis genes",-0.233
same,log2FC,"gene BMP4 (Gene 652), cell cycle genes",0.22
same,BMP5 log2FC,"gene BMP5 (653), apoptosis genes",-0.019
same,BOK log2FC,"gene BOK (666), apoptosis genes",0.093
same,log2FC,"gene BRE (Gene 9577), cell cycle genes",-0.21
same,BTK log2FC,"gene BTK (695), apoptosis genes",0.086
same,log2FC,"gene BUB1B (Gene 701), cell cycle genes",0.15
same,C1QBP log2FC,"gene C1QBP (708), apoptosis genes",-0.112
same,C3orf38 log2FC,"gene C3orf38 (285237), apoptosis genes",-0.159
same,log2FC,"gene CAMK2B (Gene 816), cell cycle genes",0.01
same,CAPN3 log2FC,"gene CAPN3 (825), apoptosis genes",-0.026
same,log2FC CAPN3,"gene CAPN3 (Gene 825), cell cycle genes",-0.0259
same,CARD9 log2FC,"gene CARD9 (64170), apoptosis genes",0.028
same,CARD14 log2FC,"gene CARD14 (79092), apoptosis genes",0.056
same,log2FC,"gene CASP3 (Gene 836), cell cycle genes",0.31
same,CASP10 log2FC,"gene CASP10 (843), apoptosis genes",0.088
same,CASP12 log2FC,"gene CASP12 (120329), apoptosis genes",0.062
same,CCK log2FC,"gene CCK (885), apoptosis genes",-0.021
same,CCL19 log2FC,"gene CCL19 (6363), apoptosis genes",0.205
same,log2FC,"gene CCNB2 (Gene 9133), cell cycle genes",0.20
same,log2FC,"gene CCNH (Gene 902), cell cycle genes",0.14
same,log2FC,"gene CCNT2 (Gene 905), cell cycle genes",0.14
same,CD38 log2FC,"gene CD38 (952), apoptosis genes",0.042
same,CD40LG log2FC,"gene CD40LG (959), apoptosis genes",-0.017
same,CD248 log2FC,"gene CD248 (57124), apoptosis genes",0.046
same,log2FC,"gene CDC73 (Gene 79577), cell cycle genes",0.33
same,CDH1 log2FC,"gene CDH1 (999), apoptosis genes",0.556
same,log2FC CDH13,"gene CDH13 (Gene 1012), cell cycle genes",0.0463
same,log2FC CDK2AP1,"gene CDK2AP1 (Gene 8099), cell cycle genes",-0.15
same,CDK5 log2FC,"gene CDK5 (1020), apoptosis genes",0.184
same,log2FC CDK5RAP1,"gene CDK5RAP1 (Gene 51654), cell cycle genes",0.0451
same,log2FC CDKN2B,"gene CDKN2B (Gene 1030), cell cycle genes",-0.0758
same,log2FC,"gene CENPJ (Gene 55835), cell cycle genes",0.11
same,log2FC,"gene CENPK (Gene 64105), cell cycle genes",0.33
same,log2FC,"gene CETN3 (Gene 1070), cell cycle genes",0.33
same,log2FC,"gene CHEK2 (Gene 11200), cell cycle genes",0.11
same,CHIA log2FC,"gene CHIA (27159), apoptosis genes",-0.110
same,CIDEA log2FC,"gene CIDEA (1149), apoptosis genes",-0.071
same,CLC log2FC,"gene CLC (1178), apoptosis genes",-0.00153
same,CLEC5A log2FC,"gene CLEC5A (23601), apoptosis genes",-0.040
same,CLSPN log2FC,"gene CLSPN (63967), apoptosis genes",-0.114
same,CNTFR log2FC,"gene CNTFR (1271), apoptosis genes",-0.050
same,COL2A1 log2FC,"gene COL2A1 (1280), apoptosis genes",-0.00236
same,COL4A3 log2FC,"gene COL4A3 (1285), apoptosis genes",0.543
same,COMP log2FC,"gene COMP (1311), apoptosis genes",-0.113
same,log2FC,"gene COPS5 (Gene 10987), cell cycle genes",0.16
same,log2FC,"gene CRLF3 (Gene 51379), cell cycle genes",0.14
same,log2FC,"gene CSNK2B (Gene 1460), cell cycle genes",-0.06
same,CST3 log2FC,"gene CST3 (1471), apoptosis genes",0.253
same,CTLA4 log2FC,"gene CTLA4 (1493), apoptosis genes",0.009
same,CXCR4 log2FC,"gene CXCR4 (7852), apoptosis genes",0.375
same,CYR61 log2FC,"gene CYR61 (3491), apoptosis genes",-0.258
same,DAPK2 log2FC,"gene DAPK2 (23604), apoptosis genes",-1.207
same,DAXX log2FC,"gene DAXX (1616), apoptosis genes",-0.040
same,log2FC DAXX,"gene DAXX (Gene 1616), cell cycle genes",-0.04
same,log2FC,"gene DCLRE1B (Gene 64858), cell cycle genes",-0.35
same,log2FC,"gene DDX11 (Gene 1663), cell cycle genes",-0.27
same,DDX47 log2FC,"gene DDX47 (51202), apoptosis genes",-0.196
same,DEDD2 log2FC,"gene DEDD2 (162989), apoptosis genes",0.214
same,DFFB log2FC,"gene DFFB (1677), apoptosis genes",-0.041
same,log2FC,"gene DIAPH2 (Gene 1730), cell cycle genes",0.38
same,log2FC DIRAS3,"gene DIRAS3 (Gene 9077), cell cycle genes",0.0278
same,DMPK log2FC,"gene DMPK (1760), apoptosis genes",0.273
same,DNM2 log2FC,"gene DNM2 (1785), apoptosis genes",0.271
same,DPF1 log2FC,"gene DPF1 (8193), apoptosis genes",-0.250
same,log2FC ECD,"gene ECD (Gene 11319), cell cycle genes",-0.23
same,EGR3 log2FC,"gene EGR3 (1960), apoptosis genes",0.187
same,EGR4 log2FC,"gene EGR4 (1961), apoptosis genes",0.222
same,ELMO1 log2FC,"gene ELMO1 (9844), apoptosis genes",0.209
same,EPB41L3 log2FC,"gene EPB41L3 (23136), apoptosis genes",0.039
